According to US20170050957A1, “4-AMINO-6-(HETEROCYCLIC)PICOLINATES AND 6-AMINO-2-(HETEROCYCLIC)PYRIMIDINE-4-CARBOXYLATES AND THEIR USE AS HERBICIDES” (Dow AgroSciences LLC, priority 2013, published 2017):
Where two headings read alike, the source gives them in different places.

Experiments:
[1] = tested on: Key Broadleaf Weed and Crop Species; test: Post-emergent Test II herbicidal activity (Table 15); type: in vivo; conditions: post-emergence, 336 h, 14 d; for pest or weed control at 35 g/ha: 35 g ai/ha; for pest or weed control at 70 g/ha: 70 g ai/ha; for pest or weed control at 140 g/ha: 140 g ai/ha
Procedure, shortened: (§1)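 Herbicidal effect scored as percent visual injury, 14 d after post-emergent application. Spray solutions contained acetone, DMSO, isopropyl alcohol, crop oil concentrate and surfactant, applied at 187 L/ha to young plants (1-2 true leaves).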

[2] = tested on: Key Grass and Sedge Weeds as well as Grass Crops; test: Post-emergent Test II herbicidal activity (Table 16); type: in vivo; conditions: post-emergence, 336 h; for pest or weed control at 35 g/ha: 35 g ai/ha; for pest or weed control at 70 g/ha: 70 g ai/ha; for pest or weed control at 140 g/ha: 140 g ai/ha
Procedure, shortened: as §1

[3] = Abutilon theophrasti, velvetleaf (Abutilon theophrasti), read-out: Visual Growth Reduction (%) 14 Days After Application, ABUTH
[4] = Amaranthus retroflexus, redroot pigweed (Amaranthus retroflexus), read-out: Visual Growth Reduction (%) 14 Days After Application, AMARE
[5] = Brassica napus, oilseed rape, canola (Brassica napus), read-out: Visual Growth Reduction (%) 14 Days After Application, BRSNN
[6] = Chenopodium album, lambsquarters (Chenopodium album), read-out: Visual Growth Reduction (%) 14 Days After Application, CHEAL
[7] = Euphorbia heterophylla, wild poinsettia (Euphorbia heterophylla), read-out: Visual Growth Reduction (%) 14 Days After Application, EPHHL
[8] = Helianthus annuus, sunflower (Helianthus annuus), read-out: Visual Growth Reduction (%) 14 Days After Application, HELAN
[9] = Cyperus esculentus, yellow nutsedge (Cyperus esculentus), 14 days after application, read-out: Visual Growth Reduction (%) 14 Days After Application CYPES
[10] = Echinochloa crus-galli, barnyardgrass (Echinochloa crus-galli), 14 days after application, read-out: Visual Growth Reduction (%) 14 Days After Application ECHCG
[11] = Oryza sativa, rice (Oryza sativa), 14 days after application, read-out: Visual Growth Reduction (%) 14 Days After Application ORYSA
[12] = Setaria faberi, giant foxtail (Setaria faberi), 14 days after application, read-out: Visual Growth Reduction (%) 14 Days After Application SETFA
[13] = Triticum aestivum, wheat, spring (Triticum aestivum), 14 days after application, read-out: Visual Growth Reduction (%) 14 Days After Application TRZAS
[14] = Zea mays, maize, corn (Zea mays), 14 days after application, read-out: Visual Growth Reduction (%) 14 Days After Application ZEAMX
[15] = Cyperus esculentus, yellow nutsedge (Cyperus esculentus), 14 d, read-out: Visual Growth Reduction (%) 14 Days After Application, CYPES
[16] = Echinochloa crus-galli, barnyardgrass (Echinochloa crus-galli), 14 d, read-out: Visual Growth Reduction (%) 14 Days After Application, ECHCG
[17] = Oryza sativa, rice (Oryza sativa), 14 d, read-out: Visual Growth Reduction (%) 14 Days After Application, ORYSA
[18] = Setaria faberi, giant foxtail (Setaria faberi), 14 d, read-out: Visual Growth Reduction (%) 14 Days After Application, SETFA
[19] = Triticum aestivum, wheat, spring (Triticum aestivum), 14 d, read-out: Visual Growth Reduction (%) 14 Days After Application, TRZAS
[20] = Zea mays, maize, corn (Zea mays), 14 d, read-out: Visual Growth Reduction (%) 14 Days After Application, ZEAMX

melting point [°C] | SMILES | pest or weed control at 35 g/ha [1, 3] [%] | pest or weed control at 70 g/ha [1, 3] [%] | pest or weed control at 140 g/ha [1, 3] [%] | pest or weed control at 35 g/ha [1, 4] [%] | pest or weed control at 70 g/ha [1, 4] [%] | pest or weed control at 140 g/ha [1, 4] [%] | pest or weed control at 35 g/ha [1, 5] [%] | pest or weed control at 70 g/ha [1, 5] [%] | pest or weed control at 140 g/ha [1, 5] [%] | pest or weed control at 35 g/ha [1, 6] [%] | pest or weed control at 70 g/ha [1, 6] [%] | pest or weed control at 140 g/ha [1, 6] [%] | pest or weed control at 35 g/ha [1, 7] [%] | pest or weed control at 70 g/ha [1, 7] [%] | pest or weed control at 140 g/ha [1, 7] [%] | pest or weed control at 35 g/ha [1, 8] [%] | pest or weed control at 70 g/ha [1, 8] [%] | pest or weed control at 140 g/ha [1, 8] [%] | further results
143 to 145 | COC(=O)c1nc(-c2ccc3ccsc3c2)nc(N)c1OC [Compound 3.20] | 0 to 29 | 0 to 29 | 0 to 29 | 0 to 29 | 60 to 74 | 60 to 74 | 30 to 44 | 60 to 74 | 60 to 74 | 85 to 94 | 95 to 100 | 95 to 100 | 75 to 84 | 95 to 100 | 95 to 100 | 75 to 84 | 85 to 94 | 85 to 94 | pest or weed control at 35 g/ha [2, 9]: 30 to 44%; pest or weed control at 70 g/ha [2, 9]: 30 to 44%; pest or weed control at 140 g/ha [2, 9]: 85 to 94%; pest or weed control at 35 g/ha [2, 10]: 0 to 29%; pest or weed control at 70 g/ha [2, 10]: 45 to 59%; pest or weed control at 140 g/ha [2, 10]: 60 to 74%; pest or weed control at 35 g/ha [2, 11]: 0 to 29%; pest or weed control at 70 g/ha [2, 11]: 0 to 29%; pest or weed control at 140 g/ha [2, 11]: 0 to 29%; pest or weed control at 35 g/ha [2, 12]: 0 to 29%; pest or weed control at 70 g/ha [2, 12]: 0 to 29%; pest or weed control at 140 g/ha [2, 12]: 60 to 74%; pest or weed control at 35 g/ha [2, 13]: 0 to 29%; pest or weed control at 70 g/ha [2, 13]: 0 to 29%; pest or weed control at 140 g/ha [2, 13]: 30 to 44%; pest or weed control at 35 g/ha [2, 14]: 0 to 29%; pest or weed control at 70 g/ha [2, 14]: 75 to 84%; pest or weed control at 140 g/ha [2, 14]: 85 to 94%
151 | COC(=O)c1nc(-c2ccc3ccoc3c2F)c(F)c(N)c1Cl [Compound 2.09] | 85 to 94 | 85 to 94 | 85 to 94 | 85 to 94 | 95 to 100 | 95 to 100 | 60 to 74 | 75 to 84 | 85 to 94 | 95 to 100 | 95 to 100 | 95 to 100 | 95 to 100 | 95 to 100 | 95 to 100 | 60 to 74 | 75 to 84 | 85 to 94 | pest or weed control at 35 g/ha [2, 15]: 0 to 29%; pest or weed control at 70 g/ha [2, 15]: 0 to 29%; pest or weed control at 140 g/ha [2, 15]: 0 to 29%; pest or weed control at 35 g/ha [2, 16]: 60 to 74%; pest or weed control at 70 g/ha [2, 16]: 85 to 94%; pest or weed control at 140 g/ha [2, 16]: 85 to 94%; pest or weed control at 35 g/ha [2, 17]: 0 to 29%; pest or weed control at 70 g/ha [2, 17]: 30 to 44%; pest or weed control at 140 g/ha [2, 17]: 30 to 44%; pest or weed control at 35 g/ha [2, 18]: 45 to 59%; pest or weed control at 70 g/ha [2, 18]: 60 to 74%; pest or weed control at 140 g/ha [2, 18]: 60 to 74%; pest or weed control at 35 g/ha [2, 19]: 0 to 29%; pest or weed control at 70 g/ha [2, 19]: 0 to 29%; pest or weed control at 140 g/ha [2, 19]: 0 to 29%; pest or weed control at 35 g/ha [2, 20]: 45 to 59%; pest or weed control at 70 g/ha [2, 20]: 60 to 74%; pest or weed control at 140 g/ha [2, 20]: 60 to 74%
